Earlier results in patent US10227406B2, “Cannabinoid receptor-1 (CB1) monoclonal antibodies” (AMGEN INC., priority 2013, dated 2019).

Tests used:
[1] = cited from earlier work; for food intake, body weight gain and metabolic parameters: mice; for brain penetration: mouse, in vivo
[2] = in vivo; cited from earlier work
[3] = multiple clinical trials; cited from earlier work

Structure (SMILES) | food intake, body weight gain and metabolic parameters [1] | brain penetration [1] | body weight and metabolic parameters [2] | adverse CNS effects [3]
CC(C)[C@H](N=C(NS(=O)(=O)c1ccc(Cl)cc1)N1C[C@H](c2ccccc2)C(c2ccc(Cl)cc2)=N1)C(N)=O [JD5037] | reduce food intake and body weight gain and improve multiple metabolic parameters | poor brain penetration | – | –
Cc1c(C(=O)NN2CCS(=O)(=O)CC2)nn(-c2ccc(Cl)cc2Cl)c1-c1ccc(C#CCCC#N)cc1 [AM6545] | reduce food intake and body weight gain and improve multiple metabolic parameters | poor brain penetration | – | –
C[C@H](NC(=O)C(C)(C)Oc1ccc(C(F)(F)F)cn1)[C@@H](Cc1ccc(Cl)cc1)c1cccc(C#N)c1 [taranabant] | – | – | reduce body weight and improve metabolic parameters | –
Cc1c(C(=O)NN2CCCCC2)nn(-c2ccc(Cl)cc2Cl)c1-c1ccc(Cl)cc1 [rimonabant] | – | – | reduce body weight and improve metabolic parameters | increased the incidence of anxiety, depression, and suicidal ideation
